Literature values, collected in patent publication US20220040100A1, “Stable Acyclovir Sodium Parenteral Formulation” (RK Pharma Solutions LLC, priority 2020, published 2022).
Counter-ions that a name gives are not always drawn.

Conditions: lyophilized powder reconstituted with Sterile Water for Injection, 50 mg/mL of acyclovir

Nc1nc2c(ncn2COCCO)c(=O)[nH]1 [Acyclovir sodium, 2-amino-1,9-dihydro-9-[(2-hydroxyethoxy)methyl]-6H-purin-6-one monosodium salt]
pH of the reconstituted solution: approximately 11
